# Tests used:
# Assay type in all cases: in vivo, rat
# [1] = system: adenine-induced model of chronic renal failure in rats; experiment: PTH suppression in adenine-induced chronic renal failure; settings: uremic rats, 0.3 or 1 mg/kg SC daily for 2 and 4 weeks
# Description: (§1) The therapeutic efficacy Ac-c(C)rrarar-NH2, (SEQ ID NO:28) was assessed using an adenine-induced model of chronic renal failure in rats. The rats were obtained from Charles River Laboratories (Wilmington, Mass.). The rats were fed a low protein (2.5%), high phosphorus (0.92%) diet containing 0.75% adenine (Teklad Custom Diet). Animals were randomly assigned to receive daily subcutaneous doses of vehicle (10 mM succinic acid, 0.85% NaCl, 0.9% benzyl alcohol, pH 4.5) or Ac-c(C)rrarar-NH2 (SEQ ID NO:28) at 0.3 or 1 mg/kg (SC) for 4 weeks. A control group was fed the identical high phosphorus diet and tissues without adenine. Treatment was initiated at the start of diet. All experimental procedures with animals were performed according to IACUC guidelines. Statistical analysis was performed using one-way ANOVA with Bonferroni post test. All p-values are nominal.
# Plasma PTH was measured using the Immunotopics BioActive Intact ELISA (Immutopics, San Clemente, Calif.). Prior to dosing with Ac-c(C)rrarar-NH2 (SEQ ID NO:28), all treatment groups had similar plasma PTH levels. The no-adenine-control animals maintained consistent plasma PTH levels over the 4 week study.
# [2] = system: adenine-induced model of chronic renal failure in rats; experiment: Creatinine suppression in adenine-induced chronic renal failure; settings: 4 weeks
# Description: as §1
# Serum creatinine was measured using QuantiChrom™ kit (BioAssay Systems, Hayward, Calif.). Serum creatinine levels from vehicle-treated uremic animals were approximately 8-10 fold higher compared to the control group of non-uremic animals at the end of the 4 weeks. […] Uremic animals treated with Ac-c(C)rrarar-NH2 (SEQ ID NO:28) at a dose of 1 mg/kg Ac-c(C)rrarar-NH2 (SEQ ID NO:28) had approximately 50% lower serum creatinine levels compared with vehicle-treated controls.
# [3] = system: adenine-induced model of chronic renal failure in rats; experiment: Serum phosphorus, calcium and calcium-phosphorus product in adenine-induced chronic renal failure; settings: uremic rats
# Description: as §1
# Phosphorus and calcium were determined using a Cobas c-501 analyzer.
# [4] = system: adenine-induced model of chronic renal failure in rats; experiment: Parathyroid gland weight in adenine-induced chronic renal failure; settings: 0.3 or 1 mg/kg SC daily for 4 weeks
# Description: as §1
# The effects of Ac-c(C)rrarar-NH2 (SEQ ID NO:28) treatment on parathyroid gland enlargement was also determined using the adenine-induced rat model of chronic renal failure. After treatment with Ac-c(C)rrarar-NH2 (SEQ ID NO:28) at doses of 0.3 or 1 mg/kg for 4 weeks, the uremic rats were sacrificed and the parathyroid glands were removed, trimmed and weighed.
# [5] = system: adenine-induced model of chronic renal failure in rats; experiment: Vascular calcification (Alizarin Red, von Kossa) in adenine-induced chronic renal failure; settings: uremic rats
# Description: as §1
# The effects of Ac-c(C)rrarar-NH2 (SEQ ID NO:28) treatment of vascular calcification was also determined using adenine-induced rat model of chronic renal failure. After treatment with Ac-c(C)rrarar-NH2 (SEQ ID NO:28) at doses of 0.3 or 1 mg/kg for 4 weeks, the uremic rats were sacrificed and aortic tissue was analyzed. Aortic tissue was processed and stained by Alizarin Red and von Kossa methods to visualize vascular mineralization. Using a scoring system from 0-5, identical sections of von Kossa-stained aorta from all animals were scored in a blinded fashion.
# [6] = 0.3 and 1 mg/kg SC daily for 4 weeks
# [7] = 0.3 or 1 mg/kg SC daily for 4 weeks
substance,measurement,setting,value
Ac-c(C)rrarar-NH2,plasma PTH versus vehicle-treated animals,[1],significantly lower
same,serum creatinine levels versus vehicle-treated uremic rats,[2]; 0.3 and 1 mg/kg SC daily,significantly lower
same,lower serum creatinine levels compared with vehicle-treated controls,"[2]; uremic rats, 1 mg/kg SC daily",approximately 50%
same,reduction in serum calcium-phosphorus product,[3]; 0.3 mg/kg SC daily for 4 weeks,~20%
same,reduction in serum calcium-phosphorus product,[3]; 1 mg/kg SC daily for 4 weeks,~40%
same,serum calcium compared to vehicle-treated rats,[3]; [6],significant dose-dependent reduction
same,serum phosphorus levels,[3]; [6],significant reduction
same,parathyroid gland weight compared to non-uremic animals,[4],not significantly different in weight
same,parathyroid gland weight compared to vehicle group,[4]; uremic rats,significantly reduced in weight
same,animals showing aortic mineralization,"[5]; 0.3 mg/kg treatment group, 4 weeks",Only one animal
same,"aortic mineralization, Alizarin Red and Von Kossa staining",[5]; [7],little or no mineralization
same,von Kossa staining of aorta,[5]; [7],no appreciable von Kossa staining

# Source: patent US20140315809A1, “CALCIMIMETICS AND METHODS FOR THEIR USE” (KAI PHARMACEUTICALS INC., priority 2011, published 2014)
